Test results as given in BindingDB's records for doi:10.7270/Q2ZC819K (Burnham Center For Chemical Genomics, 2009).

Molecular target: Polyadenylate-binding protein 1 (Homo sapiens, UniProt P11940)
Experiment: blockers of PABP interaction with poly(A) – biochemical, fluorescence polarization, uHTS, primary screen (AID 2014)

Sequence of Polyadenylate-binding protein 1 (P11940 whole entry): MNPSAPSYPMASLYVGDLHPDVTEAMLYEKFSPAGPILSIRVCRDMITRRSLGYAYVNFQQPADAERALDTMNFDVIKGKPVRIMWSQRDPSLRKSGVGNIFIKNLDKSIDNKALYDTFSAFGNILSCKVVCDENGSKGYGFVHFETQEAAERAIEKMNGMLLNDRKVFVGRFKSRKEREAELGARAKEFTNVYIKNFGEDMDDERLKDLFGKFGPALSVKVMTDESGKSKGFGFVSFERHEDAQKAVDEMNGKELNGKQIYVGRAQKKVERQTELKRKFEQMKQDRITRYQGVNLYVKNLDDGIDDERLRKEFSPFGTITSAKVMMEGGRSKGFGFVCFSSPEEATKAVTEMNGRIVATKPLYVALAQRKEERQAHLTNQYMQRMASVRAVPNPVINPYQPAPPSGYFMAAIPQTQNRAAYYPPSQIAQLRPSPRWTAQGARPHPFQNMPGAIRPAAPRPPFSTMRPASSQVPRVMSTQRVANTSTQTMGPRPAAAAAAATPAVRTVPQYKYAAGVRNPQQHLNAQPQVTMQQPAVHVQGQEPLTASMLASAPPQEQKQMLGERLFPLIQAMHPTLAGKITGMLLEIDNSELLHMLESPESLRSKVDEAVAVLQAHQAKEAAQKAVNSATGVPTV

Question: With `O=C(O)c1ccc(N=NCc2cc3c(cc2[N+](=O)[O-])OCO3)cc1` as the compound, how does the IC50 read?
Answer: Its IC50 is 48.8 µM.

Question: `COc1ccc2c(c1)=C(NNC(=O)Cc1cccs1)C(=O)N=2` was tested. Which IC50 did it give?
Answer: Its IC50 is 31 µM.

Question: With `CCn1c(=NC(=O)c2ccc(-n3c(O)ccc3O)cc2)sc2c(OC)ccc(OC)c21` [4-[2,5-bis(oxidanylidene)pyrrolidin-1-yl]-N-(3-ethyl-4,7-dimethoxy-1,3-benzothiazol-2-ylidene)benzamide] as the compound, how does the IC50 read?
Answer: The IC50 was 100 µM.

Question: For `CC1(C)Oc2ccc3ccc(=O)oc3c2C(CN=O)=C1Cl` [9-chloro-2-keto-8,8-dimethyl-pyrano[2,3-f]chromene-10-carbaldehyde oxime], which IC50 is on record?
Answer: Its IC50 is 10.3 µM.

Question: `COc1cc(C)cc(C(=O)O)c1C1C(=O)C(=O)c2c(O)cccc2C1=O` (centres undefined) [MLS000877007] was tested. Which IC50 did it give?
Answer: Its IC50 is 5.41 µM.

Question: Which IC50 does the source give for `O=C1N=c2ccccc2=C1NNC(=O)c1cc(-c2cccs2)n[nH]1` [N'-(2-oxoindol-3-yl)-5-thiophen-2-yl-1H-pyrazole-3-carbohydrazide] here?
Answer: The IC50 was 28.8 µM.

Question: How did the IC50 turn out when `CC1=NC(=O)NC(c2ccco2)C1C(=O)OC(C)C` (centres undefined) [SMR000120838] was run?
Answer: Its IC50 is 42.8 µM.

Question: Which IC50 does the source give for `COc1ccc(CN=Nc2nc(O)c(CC(=O)O)s2)cc1OCc1ccc(Cl)cc1Cl` [[2-({3-[(2,4-dichlorobenzyl)oxy]-4-methoxybenzylidene}hydrazono)-4-oxo-1,3-thiazolidin-5-yl]acetic acid] here?
Answer: The IC50 was 64.3 µM.

Question: For `CC[N+](C)(CC)CCCC(N=O)C(O)(c1ccccc1)c1ccccc1` (centres undefined) [diethyl-(5-hydroxy-4-hydroxyimino-5,5-diphenylpentyl)-methylammonium;iodide], which IC50 is on record?
Answer: Its IC50 is 5.57 µM.
